row,Compound,melting point [°C]
1,"c1ccc(-c2ccc(-c3c[nH]c(CC4CCCCC4)n3)cc2)cc1 [Example 17, 4-(1,1′-biphenyl-4-yl)-2-(cyclohexylmethyl)-1H-imidazole]",104 to 105
2,"CCCCCCc1nc(-c2ccc(CC(C)C)cc2)c[nH]1 [Example 2, 2-hexyl-4-(4-isobutylphenyl)-1H-imidazole]",89 to 90
3,"CCCCCC(CCCCC)c1nc(-c2ccccc2)c[nH]1 [Example 4, 2-(1-pentylhexyl)-4-phenyl-1H-imidazole]",111.2
4,"CCCC(CCC)c1nc(-c2ccc(C(C)(C)C)cc2)c[nH]1 [Example 8, 4-(4-tert-butylphenyl)-2-(1-propylbutyl)-1H-imidazole]",200 to 202
5,"c1ccc(CCCc2nc(-c3ccccc3)c[nH]2)cc1 [Example 3, 4-phenyl-2-(3-phenylpropyl)-1H-imidazole]",106 to 108
6,"CCCC(CCC)c1nc(-c2ccc(-c3ccccc3)cc2)c[nH]1 [Example 16, 4-(1,1′-biphenyl-4-yl)-2-(1-propylbutyl)-1H-imidazole]",197 to 198
7,"CC(C)Cc1ccc(C(C)c2nc(-c3ccc(F)cc3)c[nH]2)cc1 (stereo not drawn) [Example 14, 4-(4-fluorophenyl)-2-[1-(4-isobutylphenyl)ethyl]-1H-imidazole]",116
8,"CC(C)Cc1ccc(Cc2nc(-c3ccc(-c4ccccc4)cc3)c[nH]2)cc1 [Example 1, 4-(1,1′-biphenyl-4-yl)-2-(4-isobutylbenzyl)-1H-imidazole]",160 to 161
9,"c1ccc(-c2ccc(-c3c[nH]c(CCC4CCCCC4)n3)cc2)cc1 [Example 11, 4-(1,1′-biphenyl-4-yl)-2-(2-cyclohexylethyl)-1H-imidazole]",104.9
10,"c1ccc(-c2ccc(-c3c[nH]c(CCCC4CCCCC4)n3)cc2)cc1 [Example 18, 4-(1,1′-biphenyl-4-yl)-2-(3-cyclohexylpropyl)-1H-imidazole]",118 to 119
11,"CCCC(CCC)c1nc(-c2ccc(-c3ccc(Br)cc3)cc2)c[nH]1 [Example 10, 4-(4′-bromo-1,1′-biphenyl-4-yl)-2-(1-propylbutyl)-1H-imidazole]",182.8
12,"Fc1ccc(-c2c[nH]c(CC3CCCCC3)n2)cc1 [Example 6, 2-(cyclohexylmethyl)-4-(4-fluorophenyl)1H-imidazole]",68 to 70
13,"CCCCCC(CCCCC)c1nc(-c2ccc(F)cc2)c[nH]1 [Example 5, 4-(4-fluorophenyl)-2-(1-pentylhexyl)-1H-imidazole]",134.6
14,"CCCCCCc1nc(-c2ccc(-c3ccccc3)cc2)c[nH]1 [Example 12, 4-(1,1′-biphenyl-4-yl)-2-hexyl-1H-imidazole]",104.8
15,"CC(c1ccccc1)c1nc(-c2ccc(-c3ccccc3)cc2)c[nH]1 (stereo not drawn) [Example 15, 4-(1,1′-biphenyl-4-yl)-2-(1-phenylethyl)-1H-imidazole]",165 to 166
16,CCCC(CCC)c1nc(-c2ccc(F)cc2)c[nH]1,217.5
17,"CC(C)Cc1ccc(C(C)c2nc(-c3ccc(-c4ccccc4)cc3)c[nH]2)cc1 (stereo not drawn) [Example 13, 4-(1,1′-biphenyl-4-yl)-2-[1-(4-isobutylphenyl)ethyl]-1H-imidazole]",172.7
18,"CCCCCC(CCCCC)c1nc(-c2ccc(-c3ccccc3)cc2)c[nH]1 [Example 7, 4-(1,1′-biphenyl-4-yl)-2-(1-pentylhexyl)-1H-imidazole]",173.6
